According to ChEMBL document CHEMBL1134738, “Alpha-ketoester-based photobiological switches: synthesis, peptide chain extension and assay against alpha-chymotrypsin” (Bioorg Med Chem Lett, 2001):

Tests used:
[1] = target: T1, Chymotrypsinogen A (Bos taurus, UniProt P00766); test: Inhibition constant for inhibition of alpha-chymotrypsin by the ambient light
[2] = target: T1, Chymotrypsinogen A; test: Inhibition constant for inhibition of alpha-chymotrypsin by the UV light

| Ki [1] [nM] | Ki [2] [nM] | Structure (SMILES) |
| --- | --- | --- |
| 770 | 290 | COC(=O)C(=O)[C@H](Cc1ccccc1)NC(=O)OCc1ccc(/N=N/c2ccccc2)cc1 |
| 240 | 130 | COC(=O)C(=O)[C@H](Cc1ccccc1)NC(=O)c1ccc(/N=N/c2ccccc2)cc1 |
